Like-named read-outs stand apart in the source and are kept apart here.
Tests used:
[1] = system: caterpillars of the armyworm (Spodoptera frugiperda); assay: Spodoptera frugiperda test (SPODFR spray treatment); assay type: in vivo; settings: 168 h, read-out: activity in %
How it was run: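 Maize leaf discs sprayed with compound diluted in emulsifier-containing water (acetone/DMF solvent, alkylaryl polyglycol ether emulsifier), dried, then infested with armyworm caterpillars. Kill scored after 7 days as % mortality, 100% = all caterpillars dead, 0% = none.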

[2] = system: larvae of the mustard beetle (Phaedon cochleariae); assay: Phaedon test (PHAECO spray treatment); assay type: in vivo; settings: 168 h, read-out: activity in %
How it was run: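 Compound dissolved in acetone/dimethylformamide with alkylaryl polyglycol ether emulsifier, then diluted with emulsifier-containing water to test concentration for spray treatment of Phaedon cochleariae larvae. Activity scored after 7 days as % larvae killed (100% = all dead, 0% = none).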

[3] = log P determination by HPLC on reversed-phase columns (EEC Directive 79/831 Annex V.A8); assay type: physicochemical; settings: pH 2.7
How it was run: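 log P from reversed-phase LC-MS retention at pH 2.7, 0.1% formic acid water/acetonitrile gradient 10–95% acetonitrile. Calibrated against C3–C16 unbranched alkan-2-ones, interpolating linearly between adjacent alkanones.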

[4] = HPLC on reversed-phase columns (C 18), EEC Directive 79/831 Annex V.A8, read-out: logP

SMILES	pest or weed control at 100 g/ha ([1]; 100 g/ha, after 7 days)	pest or weed control at 100 g/ha ([2]; 100 g/ha, after 7 days)	chromatographic logP [3]	pest or weed control at 100 g/ha [1]	pest or weed control at 100 g/ha [2]	chromatographic logP [3, 4]
Cc1cc(I)cc(C(=O)NCC2CC2)c1NC(=O)c1cc(Cn2ncc(C(F)(F)C(F)(F)F)n2)nn1-c1ncccc1Cl [Example 345]	100%	100%	4.22	–	–	–
Cc1cc(I)cc(C(=O)NC(C)C)c1NC(=O)c1cc(Cn2ncc(C(F)(F)C(F)(F)F)n2)nn1-c1ncccc1Cl [Example 346]	100%	100%	4.15	–	–	–
Cc1cc(I)cc(C(=O)NC2CC2)c1NC(=O)c1cc(Cn2ncc(C(F)(F)C(F)(F)F)n2)nn1-c1ncccc1Cl [Example 347]	100%	100%	3.86	–	–	–
Cc1cc(Cl)cc(C(=O)NC(C)C2CC2)c1NC(=O)c1cc(Cn2ncc(C(F)(F)C(F)(F)F)n2)nn1-c1ncccc1Cl (stereo not drawn) [Example 351]	100%	100%	4.21	–	–	–
Cc1cc(I)cc(C(N)=O)c1NC(=O)c1cc(Cn2ncc(C(F)(F)C(F)(F)F)n2)nn1-c1ncccc1Cl [Example 354]	100%	100%	3.33	–	–	–
CCNC(=O)c1cc(I)cc(C)c1NC(=O)c1cc(Cn2ncc(C(F)(F)C(F)(F)F)n2)nn1-c1ncccc1Cl [Example 355]	100%	100%	3.89	–	–	–
Cc1cc(I)cc(C(=O)NC(C)C2CC2)c1NC(=O)c1cc(Cn2ncc(C(F)(F)C(F)(F)F)n2)nn1-c1ncccc1Cl (stereo not drawn) [Example 357]	100%	100%	4.45	–	–	–
Cc1cc(Cl)cc(C(=O)NCC2CC2)c1NC(=O)c1cc(Cn2ncc(C(F)(F)C(F)(F)C(F)(F)F)n2)nn1-c1ncccc1Cl [Example 366]	–	–	–	100%	100%	4.34
CCNC(=O)c1cc(Cl)cc(C)c1NC(=O)c1cc(Cn2ncc(C(F)(F)C(F)(F)C(F)(F)F)n2)nn1-c1ncccc1Cl [Example 367]	–	–	–	100%	100%	4.03
CCNC(=O)c1cc(I)cc(C)c1NC(=O)c1cc(Cn2ncc(C(F)(F)C(F)(F)C(F)(F)F)n2)nn1-c1ncccc1Cl [Example 369]	–	–	–	100%	100%	4.28
Cc1cc(Cl)cc(C(=O)NC2CC2)c1NC(=O)c1cc(Cn2ncc(C(F)(F)C(F)(F)C(F)(F)F)n2)nn1-c1ncccc1Cl [Example 370]	–	–	–	100%	100%	3.99
Cc1cc(I)cc(C(=O)NC(C)C)c1NC(=O)c1cc(Cn2ncc(C(F)(F)C(F)(F)C(F)(F)F)n2)nn1-c1ncccc1Cl [Example 371]	–	–	–	100%	100%	4.46
Cc1cc(C#N)cc(C(=O)NC2CC2)c1NC(=O)c1cc(Cn2ncc(C(F)(F)C(F)(F)C(F)(F)F)n2)nn1-c1ncccc1Cl [Example 376]	–	–	–	100%	100%	3.63
CNC(=O)c1cc(I)cc(C)c1NC(=O)c1cc(Cn2ncc(C(F)(F)C(F)(F)C(F)(F)F)n2)nn1-c1ncccc1Cl [Example 377]	–	–	–	100%	100%	4
Cc1cc(Cl)cc(C(=O)NC(C)C)c1NC(=O)c1cc(Cn2ncc(C(F)(F)C(F)(F)C(F)(F)F)n2)nn1-c1ncccc1Cl [Example 378]	–	–	–	100%	100%	4.27
Cc1cc(Cl)cc(C(=O)NC(C)C2CC2)c1NC(=O)c1cc(Cn2ncc(C(F)(F)C(F)(F)C(F)(F)F)n2)nn1-c1ncccc1Cl (stereo not drawn) [Example 379]	–	–	–	100%	100%	4.57
Cc1cc(I)cc(C(=O)NCC2CC2)c1NC(=O)c1cc(Cn2ncc(C(F)(F)C(F)(F)C(F)(F)F)n2)nn1-c1ncccc1Cl [Example 382]	–	–	–	100%	100%	4.59
Cc1cc(I)cc(C(=O)NC(C)(C)C)c1NC(=O)c1cc(Cn2ncc(C(F)(F)C(F)(F)C(F)(F)F)n2)nn1-c1ncccc1Cl [Example 385]	–	–	–	100%	100%	4.89
Cc1cc(I)cc(C(=O)NC(C)C2CC2)c1NC(=O)c1cc(Cn2ncc(C(F)(F)C(F)(F)C(F)(F)F)n2)nn1-c1ncccc1Cl (stereo not drawn) [Example 386]	–	–	–	100%	100%	4.82

SMILES	pest or weed control at 100 g/ha ([1]; 100 g/ha, after 7 days)	pest or weed control at 100 g/ha ([2]; 100 g/ha, after 7 days)	chromatographic logP [3]	pest or weed control at 100 g/ha [1]	pest or weed control at 100 g/ha [2]	chromatographic logP [3, 4]
CSC[C@H](C)NC(=O)c1cc(I)cc(C)c1NC(=O)c1cc(Cn2nc(C(F)(F)F)c(C(F)(F)F)n2)nn1-c1ncccc1Cl [Example 388]	100%	100%	4.64	–	–	–
CCNC(=O)c1cc(I)cc(C)c1NC(=O)c1cc(Cn2nc(C(F)(F)F)c(C(F)(F)F)n2)nn1-c1ncccc1Cl [Example 389]	100%	100%	4.23	–	–	–
Cc1cc(I)cc(C(=O)NC2CC2)c1NC(=O)c1cc(Cn2nc(C(F)(F)F)c(C(F)(F)F)n2)nn1-c1ncccc1Cl [Example 390]	100%	100%	4.19	–	–	–
Cc1cc(I)cc(C(=O)NC(C)C2CC2)c1NC(=O)c1cc(Cn2nc(C(F)(F)F)c(C(F)(F)F)n2)nn1-c1ncccc1Cl (stereo not drawn) [Example 391]	100%	100%	4.76	–	–	–
CCNC(=O)c1cc(Cl)cc(C)c1NC(=O)c1cc(Cn2nc(C(F)(F)F)c(C(F)(F)F)n2)nn1-c1ncccc1Cl [Example 392]	100%	100%	3.98	–	–	–
Cc1cc(Cl)cc(C(=O)NC2CC2)c1NC(=O)c1cc(Cn2nc(C(F)(F)F)c(C(F)(F)F)n2)nn1-c1ncccc1Cl [Example 394]	100%	100%	3.96	–	–	–
Cc1cc(C#N)cc(C(=O)NCC2CC2)c1NC(=O)c1cc(Cn2nc(C(F)(F)F)c(C(F)(F)F)n2)nn1-c1ncccc1Cl [Example 395]	100%	100%	3.89	–	–	–
CCNC(=O)c1cc(C#N)cc(C)c1NC(=O)c1cc(Cn2nc(C(F)(F)F)c(C(F)(F)F)n2)nn1-c1ncccc1Cl [Example 397]	100%	100%	3.61	–	–	–
Cc1cc(C#N)cc(C(=O)NC(C)C)c1NC(=O)c1cc(Cn2nc(C(F)(F)F)c(C(F)(F)F)n2)nn1-c1ncccc1Cl [Example 398]	100%	100%	3.84	–	–	–
Cc1cc(C#N)cc(C(=O)NC2CC2)c1NC(=O)c1cc(Cn2nc(C(F)(F)F)c(C(F)(F)F)n2)nn1-c1ncccc1Cl [Example 399]	100%	100%	3.59	–	–	–
Cc1cc(I)cc(C(=O)NCC2CC2)c1NC(=O)c1cc(Cn2nc(C(F)(F)F)c(C(F)(F)F)n2)nn1-c1ncccc1Cl [Example 401]	100%	100%	4.52	–	–	–
Cc1cc(I)cc(C(=O)NC(C)C)c1NC(=O)c1cc(Cn2nc(C(F)(F)F)c(C(F)(F)F)n2)nn1-c1ncccc1Cl [Example 403]	100%	100%	4.47	–	–	–
Cc1cc(I)cc(C(=O)NC(C)(C)C)c1NC(=O)c1cc(Cn2nc(C(F)(F)F)c(C(F)(F)F)n2)nn1-c1ncccc1Cl [Example 404]	100%	100%	4.84	–	–	–
CNC(=O)c1cc(I)cc(C)c1NC(=O)c1cc(Cn2nc(C(F)(F)F)c(C(F)(F)F)n2)nn1-c1ncccc1Cl [Example 405]	100%	100%	4.03	–	–	–
Cc1cc(Cl)cc(C(=O)NCC2CC2)c1NC(=O)c1cc(Cn2nc(C(F)(F)F)c(C(F)(F)F)n2)nn1-c1ncccc1Cl [Example 406]	100%	100%	4.29	–	–	–
Cc1cc(Cl)cc(C(N)=O)c1NC(=O)c1cc(Cn2nc(C(F)(F)F)c(C(F)(F)F)n2)nn1-c1ncccc1Cl [Example 407]	100%	100%	3.49	–	–	–
Cc1cc(Cl)cc(C(=O)NC(C)C)c1NC(=O)c1cc(Cn2nc(C(F)(F)F)c(C(F)(F)F)n2)nn1-c1ncccc1Cl [Example 409]	100%	100%	4.23	–	–	–
Cc1cc(Cl)cc(C(=O)NC(C)C2CC2)c1NC(=O)c1cc(Cn2nc(C(F)(F)F)c(C(F)(F)F)n2)nn1-c1ncccc1Cl (stereo not drawn) [Example 410]	100%	100%	4.5	–	–	–
CNC(=O)c1cc(Cl)cc(C)c1NC(=O)c1cc(Cn2nc(C(F)(F)F)c(C(F)(F)F)n2)nn1-c1ncccc1Cl [Example 411]	100%	100%	3.78	–	–	–
